Structures can show the parent of a compound that is named as a salt.
Biological target: T1, BTK (Homo sapiens, UniProt Q06187)
T1 construct: purchased Upstate 14-552
Assay: In Vitro BTK Kinase Assay: Btk-PolyGAT-LS Assay
Type: biochemical
Conditions: active BTK enzyme 0.25 nM, polyGAT 100 nM, 30 minutes, TRF readout; read-out: In Vitro BTK Kinase Assay IC50 Score
Description: The purpose of the BTK in vitro assay is to determine compound potency against BTK through the measurement of IC50. Compound inhibition is measured after monitoring the amount of phosphorylation of a fluorescein-labeled polyGAT peptide (Invitrogen PV3611) in the presence of active BTK enzyme (Upstate 14-552), ATP, and inhibitor. The BTK kinase reaction was done in a black 96 well plate (costar 3694). For a typical assay, a 24 μL aliquot of a ATP/peptide master mix (final concentration; ATP […], polyGAT 100 nM) in kinase buffer (10 mM Tris-HCl pH 7.5, 10 mM MgCl2, 200 μM […], 5 mM DTT, 0.01% Triton X-100, and 0.2 mg/ml casein) is added to each well. Next, […] of a 4-fold, 40× compound titration in 100% DMSO solvent is added, followed by adding 15 μL of BTK enzyme mix in 1× kinase buffer (with a final concentration of 0.25 nM). The assay is incubated for 30 minutes before being stopped with 28 μL of a 50 mM EDTA solution. Aliquots (5 uL) of the kinase reaction are transferred to a low volume white 384 well plate (Coming 3674), and 5 μL of a 2× detection buffer (Invitrogen PV3574, with 4 nM Tb—PY20 antibody, Invitrogen PV3552) is added. The plate is covered and incubated for 45 minutes at room temperature. Time resolved fluorescence (TRF) on Molecular Devices M5 (332 nm excitation; 488 nm emission; 518 nm fluorescein emission) is measured. IC50 values are calculated using a four parameter fit with 100% enzyme activity determined from the DMSO control and 0% activity from the EDTA control.

T1 sequence (Q06187 whole entry): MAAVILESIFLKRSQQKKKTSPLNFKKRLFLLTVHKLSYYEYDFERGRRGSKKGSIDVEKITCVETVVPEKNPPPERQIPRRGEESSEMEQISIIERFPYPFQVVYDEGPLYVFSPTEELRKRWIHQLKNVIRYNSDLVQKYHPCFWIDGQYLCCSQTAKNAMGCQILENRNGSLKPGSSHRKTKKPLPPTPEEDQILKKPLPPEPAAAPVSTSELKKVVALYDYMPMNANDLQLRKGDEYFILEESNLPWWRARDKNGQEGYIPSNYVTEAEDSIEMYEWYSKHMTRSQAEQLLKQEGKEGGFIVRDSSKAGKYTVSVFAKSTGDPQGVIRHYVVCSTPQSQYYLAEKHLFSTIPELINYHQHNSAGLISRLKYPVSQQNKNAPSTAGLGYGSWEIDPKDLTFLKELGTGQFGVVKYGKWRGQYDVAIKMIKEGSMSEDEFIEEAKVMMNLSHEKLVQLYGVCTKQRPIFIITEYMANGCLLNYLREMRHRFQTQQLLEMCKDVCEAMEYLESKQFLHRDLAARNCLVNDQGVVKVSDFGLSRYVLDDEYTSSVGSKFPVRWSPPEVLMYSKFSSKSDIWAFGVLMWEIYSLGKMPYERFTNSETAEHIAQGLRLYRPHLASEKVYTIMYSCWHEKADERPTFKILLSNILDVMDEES

Compound	IC50 [nM]
Cn1cc(-c2cn3nccc3c(N3CCC4(CC(NC(=O)c5noc(C(C)(C)C)n5)C4)C3)n2)cn1 (single isomer, unassigned) [Example 53, 5-(tert-butyl)-N-((2r,4s)-6-(6-(1-methyl-1H-pyrazol-4-yl)pyrazolo[1,5-a]pyrazin-4-yl)-6-azaspiro[3.4]octan-2-yl)-1,2,4-oxadiazole-3-carboxamide]	10 to 1000
Cn1cc(-c2cn3nccc3c(N3CCC4(CC(NC(=O)c5noc(C(C)(C)C)n5)C4)C3)n2)cn1 (single isomer, unassigned) [Example 54, 5-(tert-butyl)-N-((2s,4r)-6-(6-(1-methyl-1H-pyrazol-4-yl)pyrazolo[1,5-a]pyrazin-4-yl)-6-azaspiro[3.4]octan-2-yl)-1,2,4-oxadiazole-3-carboxamide]	1000 to 10000
C[C@H]1C[C@H](CNC(=O)c2cn(C(C)(C)C)nn2)CCN1c1nc(-c2cnn(C)c2)cn2nccc12 (single isomer, unassigned) [Example 140]	10 to 1000
C[C@@H]1C[C@H](CNC(=O)c2cn(C(C)(C)C)nn2)CCN1c1nc(-c2cnn(C)c2)cn2nccc12 (single isomer, unassigned) [Example 141]	10 to 1000
C[C@H]1C[C@@H](CNC(=O)c2cn(C(C)(C)C)nn2)CCN1c1nc(-c2cnn(C)c2)cn2nccc12 (single isomer, unassigned) [Example 142]	10 to 1000
C[C@@H]1CN(c2nc(-c3cnn(C)c3)cn3nccc23)CC[C@H]1CNC(=O)c1noc(C2(C)CC2)n1 (single isomer, unassigned) [Example 145]	10 to 1000
C[C@H]1CN(c2nc(-c3cnn(C)c3)cn3nccc23)CC[C@H]1CNC(=O)c1noc(C2(C)CC2)n1 (single isomer, unassigned) [Example 147]	10 to 1000
C[C@@H]1CN(c2nc(-c3cnn(C)c3)cn3nccc23)CC[C@@H]1CNC(=O)c1cn(C(C)(C)C)nn1 (single isomer, unassigned) [Example 150]	10 to 1000
Cn1cc(-c2cn3nccc3c(N3CC[C@H](CNC(=O)c4noc(C(C)(C)C)n4)C(F)(F)C3)n2)cn1 (single isomer, unassigned) [Example 159]	10 to 1000
CC(C)(C)n1cc(C(=O)NCc2ccc(-c3nc(N4CCOCC4)cn4nccc34)cc2)nn1 [Example 26, 1-(tert-butyl)-N-(4-(6-morpholinopyrazolo[1,5-a]pyrazin-4-yl)benzyl)-1H-1,2,3-triazole-4-carboxamide]	10 to 1000
CC(C)(C)n1cc(C(=O)NCc2ccc(-c3nc(N4CCOCC4)cn4nccc34)cc2)cn1 [Example 27, 1-(tert-butyl)-N-(4-(6-morpholinopyrazolo[1,5-a]pyrazin-4-yl)benzyl)-1H-pyrazole-4-carboxamide]	1000 to 10000
CC(C)(C)n1ccc(C(=O)NCc2ccc(-c3nc(N4CCOCC4)cn4nccc34)cc2)n1 [Example 28, 1-(tert-butyl)-N-(4-(6-morpholinopyrazolo[1,5-a]pyrazin-4-yl)benzyl)-1H-pyrazole-3-carboxamide]	1000 to 10000
CC(C)(C)c1nnc(C(=O)NCc2ccc(-c3nc(N4CCOCC4)cn4nccc34)cc2)o1 [Example 29, 5-(tert-butyl)-N-(4-(6-morpholinopyrazolo[1,5-a]pyrazin-4-yl)benzyl)-1,3,4-oxadiazole-2-carboxamide]	1000 to 10000
Cc1cc(-c2nc(-c3cnn(C)c3)cn3nccc23)ccc1CN1CCN(CC2COC2)CC1=O [Example 32, 1-(2-methyl-4-(6-(1-methyl-1H-pyrazol-4-yl)pyrazolo[1,5-a]pyrazin-4-yl)benzyl)-4-(oxetan-3-ylmethyl)piperazin-2-one]	10 to 1000
Cc1cc(-c2nc(-c3cnn(C)c3)cn3nccc23)ccc1CN1CCN(C2COC2)C(C)C1=O (stereo not drawn) [Example 37, 3-methyl-1-(2-methyl-4-(6-(1-methyl-1H-pyrazol-4-yl)pyrazolo[1,5-a]pyrazin-4-yl)benzyl)-4-(oxetan-3-yl)piperazin-2-one]	10 to 1000
Cn1cc(-c2cn3nccc3c(N3CCC(C)(CNC(=O)c4noc(C(C)(C)C)n4)C3)n2)cn1 (stereo not drawn) [Example 42, 5-(tert-butyl)-N-((3-methyl-1-(6-(1-methyl-1H-pyrazol-4-yl)pyrazolo[1,5-a]pyrazin-4-yl)pyrrolidin-3-yl)methyl)-1,2,4-oxadiazole-3-carboxamide]	1000 to 10000
Cn1cc(-c2cn3nccc3c(N3CCC(C)(CNC(=O)c4nnn(C(C)(C)C)n4)C3)n2)cn1 (stereo not drawn) [Example 48, 2-(tert-butyl)-N-((3-methyl-1-(6-(1-methyl-1H-pyrazol-4-yl)pyrazolo[1,5-a]pyrazin-4-yl)pyrrolidin-3-yl)methyl)-2H-tetrazole-5-carboxamide]	10 to 1000
Cn1cc(-c2cn3nccc3c(N3CCC(C)(CNC(=O)c4cn(C(C)(C)C)nn4)C3)n2)cn1 (stereo not drawn) [Example 49, 1-(tert-butyl)-N-((3-methyl-1-(6-(1-methyl-1H-pyrazol-4-yl)pyrazolo[1,5-a]pyrazin-4-yl)pyrrolidin-3-yl)methyl)-1H-1,2,3-triazole-4-carboxamide]	1000 to 10000
Cn1cc(-c2cn3nccc3c(N3CCC(C)(CNC(=O)c4cnc(C(C)(C)C)o4)C3)n2)cn1 (stereo not drawn) [Example 50, 2-(tert-butyl)-N-((3-methyl-1-(6-(1-methyl-1H-pyrazol-4-yl)pyrazolo[1,5-a]pyrazin-4-yl)pyrrolidin-3-yl)methyl)oxazole-5-carboxamide]	1000 to 10000
Cn1cc(-c2cn3nccc3c(N3CCC(C)(CNC(=O)c4noc(C5(C)CC5)n4)C3)n2)cn1 (stereo not drawn) [Example 51, N-((3-methyl-1-(6-(1-methyl-1H-pyrazol-4-yl)pyrazolo[1,5-a]pyrazin-4-yl)pyrrolidin-3-yl)methyl)-5-(1-methylcyclopropyl)-1,2,4-oxadiazole-3-carboxamide]	1000 to 10000
Cn1cc(-c2cn3nccc3c(N3CCC4(CC(NC(=O)c5noc(C(C)(C)C)n5)C4)C3)n2)cn1 (stereo not drawn) [Example 52, 5-(tert-butyl)-N-(6-(6-(1-methyl-1H-pyrazol-4-yl)pyrazolo[1,5-a]pyrazin-4-yl)-6-azaspiro[3.4]octan-2-yl)-1,2,4-oxadiazole-3-carboxamide]	1000 to 10000
Cc1cc(-c2nc(-c3cnn(C4COC4)c3)cn3nccc23)ccc1CNC(=O)c1noc(C(C)(C)C)n1 [Example 55, 5-(tert-butyl)-N-(2-methyl-4-(6-(1-(oxetan-3-yl)-1H-pyrazol-4-yl)pyrazolo[1,5-a]pyrazin-4-yl)benzyl)-1,2,4-oxadiazole-3-carboxamide]	< 1
Cn1cc(-c2cc(-c3ccc(CNC(=O)c4cn(C(C)(C)C)nn4)cc3)n3cnnc3c2)cn1 [Example 75, 1-(tert-butyl)-N-(4-(7-(1-methyl-1H-pyrazol-4-yl)-[1,2,4]triazolo[4,3-a]pyridin-5-yl)benzyl)-1H-1,2,3-triazole-4-carboxamide]	10 to 1000
Cn1cc(-c2cc(-c3ccc(CNC(=O)c4cnn(C(C)(C)C)c4)cc3)n3cnnc3c2)cn1 [Example 77, 1-(tert-butyl)-N-(4-(7-(1-methyl-1H-pyrazol-4-yl)-[1,2,4]triazolo[4,3-a]pyridin-5-yl)benzyl)-1H-pyrazole-4-carboxamide]	10 to 1000
Cn1cc(-c2cn3nccc3c(-c3cc(F)c(CNC(=O)c4ccn(C(C)(C)C)n4)cc3F)n2)cn1 [Example 96, 1-(tert-butyl)-N-(2,5-difluoro-4-(6-(1-methyl-1H-pyrazol-4-yl)pyrazolo[1,5-a]pyrazin-4-yl)benzyl)-1H-pyrazole-3-carboxamide]	10 to 1000
Cn1cc(-c2cn3nccc3c(-c3ccc(CNC(=O)c4ccn(C(C)(C)C)n4)c(C(F)F)c3)n2)cn1 [Example 103, 1-(tert-butyl)-N-(2-(difluoromethyl)-4-(6-(1-methyl-1H-pyrazol-4-yl)pyrazolo[1,5-a]pyrazin-4-yl)benzyl)-1H-pyrazole-3-carboxamide]	1 to 10
Cn1cc(-c2cn3nccc3c(-c3ccc(CNC(=O)c4ccn(C(C)(C)C)n4)cc3F)n2)cn1 [Example 111, 1-(tert-butyl)-N-(3-fluoro-4-(6-(1-methyl-1H-pyrazol-4-yl)pyrazolo[1,5-a]pyrazin-4-yl)benzyl)-1H-pyrazole-3-carboxamide]	10 to 1000
Cc1cc(-c2nc(N3CCOCC3)cn3nccc23)ccc1CNC(=O)c1cnn(C(C)(C)C)n1 [Example 123, 2-(tert-butyl)-N-(2-methyl-4-(6-morpholinopyrazolo[1,5-a]pyrazin-4-yl)benzyl)-2H-1,2,3-triazole-4-carboxamide]	10 to 1000
Cc1cc(-c2nc(N3CCN(C)CC3)cn3nccc23)ccc1CNC(=O)c1cnn(C(C)(C)C)n1 [Example 124, 2-(tert-butyl)-N-(2-methyl-4-(6-(4-methylpiperazin-1-yl)pyrazolo[1,5-a]pyrazin-4-yl)benzyl)-2H-1,2,3-triazole-4-carboxamide trifluoroacetate]	10 to 1000
CC(C)(C)c1nc(C(=O)NCc2ccc(-c3nc(N4CCOCC4)cn4nccc34)cc2F)co1 [Example 125, 2-(tert-butyl)-N-(2-fluoro-4-(6-morpholinopyrazolo[1,5-a]pyrazin-4-yl)benzyl)oxazole-4-carboxamide]	10 to 1000

— patent publication US20250034150A1, “BTK INHIBITORS” (BIOGEN MA INC., priority 2021, published 2025)
